Results as given in patent US12409181B2, “Treatment for aortic aneurysms” (THE REGENTS OF THE UNIVERSITY OF CALIFORNIA, priority 2019, dated 2025).
Entries after “also recorded” stand apart in the source; their conditions may differ.

Legend:
[1] = tested on: aortic rings; test: Arterial ring isometric tension measurements; set-up: species or system mice
Protocol: Arterial Ring Isometric Tension Measurements. Isometric tension in aortas was measured as previously described,^64 with minor modifications. Thoracic aortas were dissected in Krebs-Henseleit solution, cleaned of any adherent connective tissue, and cut into 1.5-2 mm segments. Rings with intact endothelium were mounted in a wire myograph over 40 μm wires, set at a resting tension of 0.5 g, and allowed to equilibrate at 37° C. for 45 min with intermittent washes every 15 min. After equilibration, aortas were treated with 40 mM K^+-solution. For vascular relaxation by acetylcholine (Sigma) or 8-(4-chlorophenylthio)cGMP (8-CPT-cGMP, BioLog), each aortic ring was pre-contracted to generate ˜0.15 g contraction by treatment with prostaglandin-F2α (PGF2α 2-8 μM, Thermo-Fisher). The degree of relaxation was calculated as a percent of PGF2α-induced contraction.

[2] = tested on: human aortic SMCs; test: DNA oxidation by 8-OH-deoxyguanosine immunofluorescence staining in SMCs; type: cell-based; conditions: human aortic SMCs expressing PKG1^RQ
Protocol: (§1) SMC Culture and Adenovirus Infection. Murine aortic SMCs were isolated from the aortas of 8-12 week old wild type and PKG1^RQ/+ mice and were cultured in Smooth Muscle Basal Media (SmBM) containing 20% FBS, pyruvate, HEPES, L-glutamine, penicillin/streptomycin and growth factors (SmBM Bullet kit; CC-4149 from Lonza), as previously described.^69 Two independent cell isolates from wild type and PKG1^RQ mice were used at passage one. Human primary aortic SMCs were purchased from Lifeline Cell Technology (Frederick, MD, FC-0015) and cultured in VascuLife Basal Medium supplemented with recombinant epidermal growth factor, insulin, and fibroblast growth factor-b, ascorbic acid, L-glutamine, 20% FBS, gentamycin, and amphotericin (Vasculife SMC LifeFactors kit; LS-1040 from Lifeline Technologies). Human SMCs were used at passages 3-6. Adenovirus was generated using the ViraPower Adenoviral Expression System (Thermo Fisher).^67 Human SMCs were infected with virus expressing wild type or mutant human PKG1α (containing the R177Q mutation); the MOI was 3-10 and titrated to produce wild type and mutant kinase at 2-3 fold the level of endogenous PKG1 at 72 h post infection. […]
(§2) SMC Immunofluorescence Staining. […] Images were analyzed with a Keyence BZ-X700 fluorescence microscope.

[3] = tested on: human aortic SMCs; test: SMC proliferation by BrdU uptake; type: cell-based
Protocol: as §1, §2

[4] = tested on: human aortic SMCs; test: H2O2 production by Amplex Red in SMCs expressing PKG1^RQ; type: cell-based; conditions: human aortic SMCs infected with PKG1^RQ adenovirus
Protocol: as §1, with “3-6.” for “3-6. Adenovirus was generated using the ViraPower Adenoviral Expression System (Thermo Fisher).^67 Human SMCs were infected with virus expressing wild type or mutant human PKG1α (containing the R177Q mutation); the MOI was 3-10 and titrated to produce wild type and mutant kinase at 2-3 fold the level of endogenous PKG1 at 72 h post infection.”
Amplex Red and NADPH Oxidase Assays. Primary murine SMCs isolated from wild type or PKG1^RQ/+ aortas, and human SMCs infected with control, wild type, or mutant PKG1^RQ virus, were seeded at 4×10^4 cells/well in 96-well plates, and H2O2 production was measured using an Amplex Red/Hydrogen Peroxide/Peroxidase Assay Kit (Thermo Fischer Scientific). […] Fluorescence was measured every min in a BioTek Synergy 2 plate reader, using 540 nm excitation and 590 nm emission wavelengths.

[5] = tested on: human aortic SMCs; test: SMC apoptosis by cleaved caspase-3 staining; type: cell-based; conditions: human SMCs expressing PKG1^RQ
Protocol: as §1, §2

[6] = tested on: Prkg1^RQ/+ mice; test: Transverse aortic constriction (TAC) with N-acetylcysteine treatment; type: in vivo
[7] = tested on: human aortic SMCs; test: Western blots (VASP phosphorylation, JNK activation) and OxyBlot protein oxidation in human SMCs; type: cell-based; conditions: human aortic SMCs, combined with low concentrations of an NO donor
Protocol: Western Blotting. Following anesthesia with ketamine (100 mg/kg) and xylazine (10 mg/kg) by intraperitoneal injection, mice were exsanguinated and perfused with ice-cold phosphate-buffered saline (PBS) containing protease inhibitor cocktail (Calbiochem #539131). Aortas were excised, cleaned from surrounding tissue, and snap-frozen in liquid nitrogen within 15 min of euthanasia. Frozen aortas were pulverized and sonicated (3×10 sec) in ice-cold RIPA buffer (50 mM NaCl, 50 mM Tris-HCl, pH 8, 1% NP-40, 0.1% SDS, 0.5% sodium deoxycholate) supplemented with 1 mM NaF, 1 mM β-glycerolphosphate, and protease inhibitor cocktail. Western blots were developed with primary antibodies specific for PKG1 (1:1000, Cell Signaling Technology; 3248, […] (1:1000, Cell Signaling Technology; 3114), GAPDH (1:1000, Cell Signaling Technology; 2118), β-actin (1:5000, Santa Cruz Biotechnology; 47778), and JNK-phospho-Thr^183/Tyr^185 (1:1000, Cell Signaling Technology; 9251). Blots were developed and visualized with enhanced chemiluminescence using LI-COR Odyssey (with ImageStudio, V5) or with film in the linear range of exposure (with densitometry scanning using ImageJ (V1.51). Protein carbonyl groups (aldehydes and ketones) were detected using the OxyBlot™ Protein Oxidation Detection Kit (Millipore EMD; S7150). Unprocessed scans of blots are provided in the Source Data file.
SMC Culture and Adenovirus Infection. Murine aortic SMCs were isolated from the aortas of 8-12 week old wild type and PKG1^RQ/+ mice and were cultured in Smooth Muscle Basal Media (SmBM) containing 20% FBS, pyruvate, HEPES, L-glutamine, penicillin/streptomycin and growth factors (SmBM Bullet kit; CC-4149 from Lonza), as previously described.^69 Two independent cell isolates from wild type and PKG1^RQ mice were used at passage one. Human primary aortic SMCs were purchased from Lifeline Cell Technology (Frederick, MD, FC-0015) and cultured in VascuLife Basal Medium supplemented with recombinant epidermal growth factor, insulin, and fibroblast growth factor-b, ascorbic acid, L-glutamine, 20% FBS, gentamycin, and amphotericin (Vasculife SMC LifeFactors kit; LS-1040 from Lifeline Technologies). Human SMCs were used at passages 3-6. Adenovirus was generated using the ViraPower Adenoviral Expression System (Thermo Fisher).^67 Human SMCs were infected with virus expressing wild type or mutant human PKG1α (containing the R177Q mutation); the MOI was 3-10 and titrated to produce wild type and mutant kinase at 2-3 fold the level of endogenous PKG1 at 72 h post infection. […] For knock-down of NOX2 and NOX4, SMCs were infected with adenovirus expressing shNOX2 or shNOX4 oligomers (downstream of the U6 promoter) at an MOI of 100; H2O2 production and NADPH oxidase activity assays were performed 48 h later (as described below).

## Nc1nc2c(nc(Sc3ccc(Cl)cc3)n2[C@@H]2O[C@@H]3COP(=O)(O)O[C@H]3[C@H]2O)c(=O)[nH]1 [8-CPT-cGMP, 8-(4-chlorophenylthio)cGMP]
[1]; Prkg1^RQ/+ versus wild type aortas, rings pre-contracted with PGF2α
  relaxation of pre-contracted aortic rings in response to the agent: reduced in the mutant mice compared to wild type mice

## CN(C)c1cccc(-c2c3c(=O)n(-c4ccccc4Cl)[nH]c3cc(=O)n2C)c1 [GKT137831]
[2]
  PKG1^RQ-induced increase in DNA oxidation (pro-oxidant effect of PKG1^RQ): blocked
[3]; human SMCs expressing PKG1^RQ, growth factor-induced proliferation
  growth-inhibitory effect of PKG1^RQ (SMC proliferation): partly prevented
[4]
  H2O2 production in PKG1^RQ-expressing cells: reduced H2O2 production in the PKG1^RQ-expressing cells to a level found in control cells
[5]
  pro-apoptotic effect of PKG1^RQ (SMC apoptosis): partly prevented

## CC(=O)N[C@@H](CS)C(=O)O [NAC, N-acetylcysteine]
[6]; NAC-treated mice
  aortic pressure gradients after TAC surgery: did not affect
  pre-stenotic aortic dilation after TAC: did not affect
[6]; NAC-treated mutant mice, 14 d after TAC
  survival after TAC compared to untreated mice: trend towards improved survival; also recorded: its effect on mortality was limited
[6]; Prkg1^RQ/+ mice, 1 mg/ml NAC in drinking water four weeks prior to and two weeks after TAC
  TAC-induced aortic pathological changes, including media thinning: largely prevented; also recorded: effective in ameliorating aortic wall injury after TAC
[6]; Prkg1^RQ/+ mice, NAC four weeks prior to and two weeks after TAC
  oxidative stress after TAC: reduced oxidative stress
[6]; wild type mice, NAC four weeks prior to and two weeks after TAC
  effect in wild type mice after TAC: no obvious effect

## CCCc1nn(C)c2c(=O)[nH]c(-c3cc(S(=O)(=O)N4CCN(C)CC4)ccc3OCC)nc12 [sildenafil, reference compound]
[3]; human aortic SMCs, drug combination of sildenafil and NO donor
  SMC proliferation: inhibited SMC proliferation
[7]
  JNK activation: induced JNK activation
  VASP phosphorylation: increased VASP phosphorylation

## prostaglandin F2α
[1]; eight month-old Prkg1^RQ/+ mice, n=5 vessels
  concentration required to pre-contract aortic rings, mutant mice: 2.27 ± 0.86 µM
[1]; eight month-old wild type mice, n=5 vessels
  concentration required to pre-contract aortic rings, wild type mice: 2.15 ± 0.17 µM
